Data from US20260297081A1, “COMPOUNDS AND METHODS OF TREATING CANCERS” (Cullgen Inc., priority 2023, published 2026).

Tests used:
Type in all cases: cell-based
Calu-1 cells = experiment: Anti-proliferation (viability) of NSCLC Calu-1 cells, 3 days (Table 7, FIG. 2B); conditions: Homo sapiens, 72 h; Calu-1 cells, 3 days, 10-point serial dilution; read-out: GI IC50 in Calu-1
Procedure, shortened: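 Cells treated with heterobifunctional compounds in 10-point serial dilution, then viability measured; Calu-1 NSCLC cells exposed for 3 days, ER+ T47D breast cancer cells for 6 days.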

T47D cells = experiment: Anti-proliferation (viability) of ER+ breast cancer T47D cells, 6 days (Table 7, FIG. 2B); conditions: Homo sapiens, 144 h; T47D cells, 6 days, 10-point serial dilution; read-out: GI IC50 in T47D
Protocol: To evaluate anti-proliferation activities of heterobifunctional compounds, NSCLC Calu-1 or ER+ breast cancer T47D cells were treated with selected heterobifunctional compounds following a 10-point serial dilution for 3 or 6 days, respectively.
To verify that heterobifunctional compound-mediated degradation is dependent on the binding to CDK4-cyclin D complex, a negative control compound, CPD-143, which is derived from active heterobifunctional compound CPD-10 was designed. CPD-143 bears the same DDB1 ligand and linker as CPD-10 but with a modified warhead to impair the binding of the control compound to CDK4.

CDK4 [1] = biological target: T1, CDK4 (Homo sapiens, UniProt P11802+Q16531); experiment: CDK4 percentage degradation in Calu-1 cells (Table 6); design: Cells that express cyclin D1-3 and CDK4/6 proteins were treated with heterobifunctional compounds; endogenous in cells; host or cells: Calu-1; conditions: 16 hours; for inhibition at 0.04 µM: 40 nM; for inhibition at 0.2 µM: 200 nM
Procedure, shortened: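 Percentage degradation of Cyclin D1 and CDK4 derived from densitometry of ECL Western blots on lysates of Calu-1 cells. Treatment was 16 h with compound at either 40 nM or 200 nM.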
Target sequence in this assay (P11802 2-303 limits assumed): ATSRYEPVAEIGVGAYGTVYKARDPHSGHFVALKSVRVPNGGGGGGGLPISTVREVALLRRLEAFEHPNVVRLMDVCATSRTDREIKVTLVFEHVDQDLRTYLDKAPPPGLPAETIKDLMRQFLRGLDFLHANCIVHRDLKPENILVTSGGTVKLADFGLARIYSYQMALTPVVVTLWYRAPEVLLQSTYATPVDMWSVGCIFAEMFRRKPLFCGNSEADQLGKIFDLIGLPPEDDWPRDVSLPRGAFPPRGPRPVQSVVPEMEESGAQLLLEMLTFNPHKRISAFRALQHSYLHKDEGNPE
Target sequence in this assay (P24385 whole entry partner): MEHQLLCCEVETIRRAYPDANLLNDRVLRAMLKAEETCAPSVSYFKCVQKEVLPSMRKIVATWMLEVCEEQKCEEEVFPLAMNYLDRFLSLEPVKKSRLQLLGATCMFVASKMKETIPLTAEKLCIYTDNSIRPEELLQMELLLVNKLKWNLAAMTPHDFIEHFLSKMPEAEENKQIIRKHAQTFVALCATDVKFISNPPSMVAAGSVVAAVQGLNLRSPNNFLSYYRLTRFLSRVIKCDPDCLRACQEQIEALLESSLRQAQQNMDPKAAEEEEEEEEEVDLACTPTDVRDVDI
Target sequence in this assay (Q16531 2-1140 limits assumed): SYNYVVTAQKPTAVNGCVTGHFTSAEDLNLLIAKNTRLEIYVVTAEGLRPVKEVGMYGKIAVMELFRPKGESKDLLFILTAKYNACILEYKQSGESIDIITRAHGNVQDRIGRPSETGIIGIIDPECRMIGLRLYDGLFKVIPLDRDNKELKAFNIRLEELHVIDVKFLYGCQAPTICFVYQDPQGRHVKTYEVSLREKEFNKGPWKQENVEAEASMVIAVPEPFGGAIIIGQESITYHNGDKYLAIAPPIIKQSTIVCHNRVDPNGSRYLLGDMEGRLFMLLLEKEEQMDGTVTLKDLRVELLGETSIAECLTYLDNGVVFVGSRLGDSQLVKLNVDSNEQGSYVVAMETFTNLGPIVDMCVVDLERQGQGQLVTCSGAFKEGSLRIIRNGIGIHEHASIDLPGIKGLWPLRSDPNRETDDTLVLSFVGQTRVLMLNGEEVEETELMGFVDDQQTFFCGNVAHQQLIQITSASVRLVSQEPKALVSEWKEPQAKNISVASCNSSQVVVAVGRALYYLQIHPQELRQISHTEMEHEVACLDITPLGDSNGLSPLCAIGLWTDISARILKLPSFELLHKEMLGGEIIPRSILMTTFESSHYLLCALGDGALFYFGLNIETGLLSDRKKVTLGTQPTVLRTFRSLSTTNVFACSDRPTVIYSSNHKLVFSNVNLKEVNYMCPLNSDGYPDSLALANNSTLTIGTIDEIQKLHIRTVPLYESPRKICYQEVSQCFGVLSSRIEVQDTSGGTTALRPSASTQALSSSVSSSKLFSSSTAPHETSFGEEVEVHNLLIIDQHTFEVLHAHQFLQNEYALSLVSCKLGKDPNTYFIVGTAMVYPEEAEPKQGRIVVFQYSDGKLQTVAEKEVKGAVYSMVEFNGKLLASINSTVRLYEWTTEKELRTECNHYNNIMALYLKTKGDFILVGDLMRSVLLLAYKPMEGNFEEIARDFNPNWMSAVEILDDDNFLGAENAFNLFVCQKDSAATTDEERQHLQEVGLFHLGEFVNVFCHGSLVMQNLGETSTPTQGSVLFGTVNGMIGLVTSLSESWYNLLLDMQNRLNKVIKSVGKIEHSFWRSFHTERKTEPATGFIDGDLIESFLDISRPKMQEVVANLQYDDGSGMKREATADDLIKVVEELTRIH

MCF7 cells = experiment: Anti-proliferation (viability) of MCF7 cells (Table 7, FIG. 2B); conditions: Homo sapiens, MCF7, MCF7 cells, 3-6 days, 10-point serial dilution; read-out: GI IC50 in MCF-7
CDK4 [2] = biological target: T1, CDK4; experiment: HiBiT detection of HiBiT-tagged CDK4 protein level in MCF7 cells, 16 hours (Table 8); design: expressed in transfected cells; host or cells: MCF7; conditions: MCF7 cells stably expressing HiBiT tagged target proteins
Protocol: HiBiT detection system quantitatively measures total amounts of HiBiT-tagged proteins using a luminescent based method. MCF7 cells stably expressing HiBiT tagged target proteins were treated with heterobifunctional compounds at indicated concentrations for 16 hours, then lysed with Nano-Glo HiBiT Lytic detection reagents.
Target sequence in this assay (P11802 whole entry): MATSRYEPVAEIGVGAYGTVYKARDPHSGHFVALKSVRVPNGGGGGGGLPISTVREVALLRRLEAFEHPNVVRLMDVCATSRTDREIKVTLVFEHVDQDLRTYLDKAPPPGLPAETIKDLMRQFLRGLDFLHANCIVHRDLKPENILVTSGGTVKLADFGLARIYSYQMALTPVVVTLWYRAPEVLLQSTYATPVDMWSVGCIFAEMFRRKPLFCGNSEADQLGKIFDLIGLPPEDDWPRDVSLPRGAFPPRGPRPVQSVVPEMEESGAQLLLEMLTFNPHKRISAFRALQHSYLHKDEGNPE
Target sequence in this assay (P24385 whole entry partner): as the sequence (P24385 whole entry partner) above
Target sequence in this assay (Q16531 2-1140 limits assumed): as the sequence (Q16531 2-1140 limits assumed) above

SMILES | IC50 (Calu-1 cells) | IC50 (T47D cells) | inhibition at 0.04 µM (CDK4 [1]) | inhibition at 0.2 µM (CDK4 [1]) | IC50 (MCF7 cells) | activity at 0.01 µM (CDK4 [2]; 10 nM, read-out: % CDK4 Relative Level (10 nM)) | activity at 0.1 µM (CDK4 [2]; 100 nM, read-out: % CDK4 Relative Level (100 nM))
CC(=O)c1c(C)c2cnc(Nc3ccc(N4CCN(CC(=O)NCCCCCNc5nc(NC(C)(C)C)ccc5C(=O)Nc5ccc(N(C)C)nn5)CC4)cn3)nc2n(C2CCCC2)c1=O [CPD-85, 2-((5-(2-(4-(6-((6-Acetyl-8-cyclopentyl-5-methyl-7-oxo-7,8-dihydropyrido[2,3-d]pyrimidin-2-yl)amino)pyridin-3-yl)piperazin-1-yl)acetamido)pentyl)amino)-6-(tert-butylamino)-N-(6-(dimethylamino)pyridazin-3-yl)nicotinamide] | ≤ 10 nM | 50 to 100 nM | < 30% | 50 to 80% | – | – | –
CC(=O)c1c(C)c2cnc(Nc3ccc(N4CCN(CC(=O)NC5CC6(C5)CC(Nc5nc(NC(C)C)ccc5C(=O)Nc5cccc(C7CC7)n5)C6)CC4)cn3)nc2n(C2CCCC2)c1=O (centres unmarked) [CPD-139, 2-((6-(2-(4-(6-((6-Acetyl-8-cyclopentyl-5-methyl-7-oxo-7,8-dihydropyrido[2,3-d]pyrimidin-2-yl)amino)pyridin-3-yl)piperazin-1-yl)acetamido)spiro[3.3]heptan-2-yl)amino)-N-(6-cyclopropylpyridin-2-yl)-6-(isopropylamino)nicotinamide] | ≤ 10 nM | ≤ 50 nM | 50 to 80% | 50 to 80% | – | – | –
CNc1ccc(C(=O)Nc2cccc(C)n2)c(NC2CC3(CC(NC(=O)CN4CCN(c5ccc(Nc6ncc7c(C)c(C(C)=O)c(=O)n(C8CCCC8)c7n6)nc5)CC4)C3)C2)n1 (centres unmarked) [CPD-75, 2-((6-(2-(4-(6-((6-Acetyl-8-cyclopentyl-5-methyl-7-oxo-7,8-dihydropyrido[2,3-d]pyrimidin-2-yl)amino)pyridin-3-yl)piperazin-1-yl)acetamido)spiro[3.3]heptan-2-yl)amino)-6-(methylamino)-N-(6-methylpyridin-2-yl)nicotinamide] | 10 to 50 nM | ≤ 50 nM | 30 to 50% | 50 to 80% | – | – | –
CNc1ccc(C(=O)Nc2ccc(N(C)C)nn2)c(NC2CC(CCNC(=O)N3CCN(c4ccc(Nc5ncc6c(C)c(C(C)=O)c(=O)n(C7CCCC7)c6n5)nc4)CC3)C2)n1 (centres unmarked) [CPD-35, 4-(6-((6-Acetyl-8-cyclopentyl-5-methyl-7-oxo-7,8-dihydropyrido[2,3-d]pyrimidin-2-yl)amino)pyridin-3-yl)-N-(2-(3-((3-((6-(dimethylamino)pyridazin-3-yl)carbamoyl)-6-(methylamino)pyridin-2-yl)amino)cyclobutyl)ethyl)piperazine-1-carboxamide] | 10 to 50 nM | 50 to 100 nM | 50 to 80% | 50 to 80% | – | – | –
CC(=O)c1c(C)c2cnc(Nc3ccc(N4CCN(CC(=O)NCCCCCNc5nc(C#N)ccc5C(=O)Nc5ccc(N(C)C)nn5)CC4)cn3)nc2n(C2CCCC2)c1=O [CPD-28, 2-((5-(2-(4-(6-((6-Acetyl-8-cyclopentyl-5-methyl-7-oxo-7,8-dihydropyrido[2,3-d]pyrimidin-2-yl)amino)pyridin-3-yl)piperazin-1-yl)acetamido)pentyl)amino)-6-cyano-N-(6-(dimethylamino)pyridazin-3-yl)nicotinamide] | 10 to 50 nM | ≤ 50 nM | 50 to 80% | 50 to 80% | – | – | –
CC(=O)c1c(C)c2cnc(Nc3ccc(N4CCN(CC(=O)NC5CC6(C5)CC(Nc5nc(NC(C)C)ccc5C(=O)Nc5cc(C)n(C)n5)C6)CC4)cn3)nc2n(C2CCCC2)c1=O (centres unmarked) [CPD-253, 2-((6-(2-(4-(6-((6-acetyl-8-cyclopentyl-5-methyl-7-oxo-7,8-dihydropyrido[2,3-d]pyrimidin-2-yl)amino)pyridin-3-yl)piperazin-1-yl)acetamido)spiro[3.3]heptan-2-yl)amino)-N-(1,5-dimethyl-1H-pyrazol-3-yl)-6-(isopropylamino)nicotinamide] | – | ≥ 100 nM | < 30% | < 30% | < 50 nM | > 85% | 55 to 85%
